Source: ChEMBL document CHEMBL4270527, “Discovery of phenylsulfonylfuroxan derivatives as gamma globin inducers by histone acetylation” (Eur J Med Chem, 2018)
Values belong to the compound of their own block, whether it stands above or below them. Active and inactive are the calls of the source. The rule behind the calls is not given here.

What was measured:
Platelet = assay: Antiplatelet activity in Wistar rat platelet rich plasma assessed as inhibition of ADP-induced platelet aggregation at 100 uM pretreated for 1 min followed by ADP addition by turbidimetric method relative to control; assay type: functional
Mus musculus = assay: Antinociceptive activity in Swiss albino mouse assessed as decrease in number of acetic acid-induced abdominal constriction at 100 umol/kg, po pretreated for 1 hr followed by acetic-acid challenge for 10 mins measured for 20 mins relative to control; assay type: functional; set-up: scale not given: the % may be the effect or the level left
Macrophage [1] = assay: Cytotoxicity against LPS-induced Swiss albino mouse macrophages assessed as cell viability at 6.2 to 50 uM after 24 hrs by MTT assay relative to control; assay type: functional
Macrophage [2] = assay: Inhibition of LPS-induced TNFalpha production in Swiss albino mouse macrophages at 12.5 uM after 24 hrs by ELISA relative to control; assay type: functional
Macrophage [3] = assay: Inhibition of LPS-induced TNFalpha production in Swiss albino mouse macrophages at 25 uM after 24 hrs by ELISA relative to control; assay type: functional
Macrophage [4] = assay: Inhibition of LPS-induced TNFalpha production in Swiss albino mouse macrophages at 50 uM after 24 hrs by ELISA relative to control; assay type: functional
CHO-K1 [5] = assay: Mutagenicity in CHOK1 cells assessed as nuclear division index at 25 uM after 24 hrs by Giemsa staining based microscopic analysis (reference value: 1.701 +/- 0.002); assay type: toxicity, cell-based, Cricetulus griseus; conditions: chinese hamster, cho-k1, 24 h
CHO-K1 [6] = assay: Genotoxicity in CHOK1 cells assessed as increase in commet tail at 100 uM after 24 hrs by commet assay; assay type: toxicity, cell-based, Cricetulus griseus; conditions: chinese hamster, cho-k1, 24 h
CHO-K1 [7] = assay: Mutagenicity in CHOK1 cells assessed as nuclear division index at 50 uM after 24 hrs by Giemsa staining based microscopic analysis (reference value: 1.701 +/- 0.002); assay type: toxicity, cell-based, Cricetulus griseus; conditions: chinese hamster, cho-k1, 24 h
CHO-K1 [8] = assay: Mutagenicity in CHOK1 cells assessed as frequency of micronucleus binucleated cells at 25 to 100 uM after 24 hrs by Giemsa staining based microscopic analysis; assay type: toxicity, cell-based, Cricetulus griseus; conditions: chinese hamster, cho-k1, 24 h
CHO-K1 [9] = assay: Mutagenicity in CHOK1 cells assessed as nuclear division index at 100 uM after 24 hrs by Giemsa staining based microscopic analysis (reference value: 1.701 +/- 0.002); assay type: toxicity, cell-based, Cricetulus griseus; conditions: chinese hamster, cho-k1, 24 h
CHO-K1 [10] = assay: Genotoxicity in CHOK1 cells assessed as increase in tail moment at 25 to 100 uM after 24 hrs by commet assay; assay type: toxicity, cell-based, Cricetulus griseus; conditions: chinese hamster, cho-k1, 24 h
[11] = Stability of the compound in pH 7.4 phosphate buffered saline assessed as compound hydrolysis after 4 hrs by UV-HPLC analysis; assay type: physicochemical; conditions: read-out: Drug degradation
Macrophage [12] = assay: Inhibition of LPS-induced TNFalpha production in Swiss albino mouse macrophages at 6.2 uM after 24 hrs by ELISA relative to control; assay type: functional
[13] = target: MAP kinase p38 (Homo sapiens) (UniProt O15264+Q15759+Q16539+P53778); assay: Activation of p38 MAPK phosphorylation in human K562 cells at 6.7 to 100 uM by Western blot analysis; assay type: cell-based
K562 [14] = assay: Activation of histone H3/H4 acetylation in human K562 cells assessed as increase in […] expression at 25 to 100 uM after 96 hrs by Western blot analysis; assay type: cell-based
[15] = target: Histone H4 (Homo sapiens) (UniProt P62805); assay: Activation of histone H4 acetylation in human K562 cells at 6.7 to 100 uM after 24 hrs by Western blot analysis; assay type: cell-based
K562 [16] = assay: Activation of histone H3 acetylation in human K562 cells at 6.7 to 100 uM after 24 hrs by Western blot analysis; assay type: cell-based
CHO-K1 [17] = assay: Cytotoxicity against CHOK1 cells assessed as reduction in cell viability at 100 uM after 24 hrs by XTT assay relative to control; assay type: cell-based, Cricetulus griseus; conditions: chinese hamster, cho-k1, 24 h
CHO-K1 [18] = assay: Cytotoxicity against CHOK1 cells assessed as reduction in cell viability at 50 uM after 24 hrs by XTT assay relative to control; assay type: cell-based, Cricetulus griseus; conditions: chinese hamster, cho-k1, 24 h
CHO-K1 [19] = assay: Cytotoxicity against CHOK1 cells assessed as reduction in cell viability at 25 uM after 24 hrs by XTT assay relative to control; assay type: cell-based, Cricetulus griseus; conditions: chinese hamster, cho-k1, 24 h
CHO-K1 [20] = assay: Mutagenicity in CHOK1 cells assessed as frequency of micronucleus at 25 to 100 uM after 24 hrs by Giemsa staining based microscopic analysis; assay type: toxicity, cell-based, Cricetulus griseus; conditions: chinese hamster, cho-k1, 24 h
CHO-K1 [21] = assay: Mutagenicity in CHOK1 cells assessed as nuclear division index at 0.3 ug/ml after 24 hrs by Giemsa staining based microscopic analysis (reference value: 1.701 +/- 0.002); assay type: toxicity, cell-based, Cricetulus griseus; conditions: chinese hamster, cho-k1, 24 h
K562 [22] = assay: Activation of histone H3/H4 acetylation in human K562 cells assessed as increase in […] expression at 6.7 to 12.5 uM after 48 hrs by Western blot analysis; assay type: cell-based
K562 [23] = assay: Activation of histone H3/H4 acetylation in human K562 cells assessed as induction of […] production at 100 uM after 96 hrs by Western blot analysis; assay type: cell-based
K562 [24] = assay: Activation of histone H3 acetylation in human K562 cells at 100 uM after 24 hrs by Western blot analysis; assay type: cell-based

SMILES: O=C(N/N=C/c1c(-c2ccccc2)no[n+]1[O-])c1ccc(N2C(=O)c3ccccc3C2=O)cc1
- inhibition at 100 µM (Platelet): 26.5%
- Activity (Mus musculus): 44.8%
- Activity (Macrophage [1]): >75%

SMILES: O=C(N/N=C/c1c(-c2ccccc2)no[n+]1[O-])c1ccccc1N1C(=O)c2ccccc2C1=O
- inhibition at 100 µM (Platelet): 17.2%
- Activity (Mus musculus): 36.2%

SMILES: O=C(N/N=C/c1ccc2no[n+]([O-])c2c1)c1ccc(N2C(=O)c3ccccc3C2=O)cc1
- inhibition at 100 µM (Platelet): 2.8%
- Activity (Mus musculus): 48.3%
- Activity (Macrophage [1]): >75%
- inhibition at 12.5 µM (Macrophage [2]): 99.9%
- inhibition at 25 µM (Macrophage [3]): 99.5%
- inhibition at 50 µM (Macrophage [4]): 54.5%

- degraded at 4 h [11]: 30%
- Activity [13]: inactive
- Activity [15]: inactive
SMILES: O=C(N/N=C/c1ccc(Oc2no[n+]([O-])c2S(=O)(=O)c2ccccc2)cc1)c1ccc(N2C(=O)c3ccccc3C2=O)cc1
- Activity_index (CHO-K1 [5]): 1.691
- Activity (CHO-K1 [6]): Non-Toxic
- Activity_index (CHO-K1 [7]): 1.69
- Activity (CHO-K1 [8]): Non-Toxic
- Activity_index (CHO-K1 [9]): 1.697
- Activity (CHO-K1 [10]): Non-Toxic
- inhibition at 100 µM (Platelet): 76.1%
- Activity (Mus musculus): 50.1%
- Activity (Macrophage [1]): >75%
- inhibition at 6.2 µM (Macrophage [12]): 41%
- inhibition at 12.5 µM (Macrophage [2]): 54.2%
- inhibition at 25 µM (Macrophage [3]): 76.5%
- Activity (K562 [14]): Active
- Activity (K562 [16]): Active
- Activity (CHO-K1 [17]): <= 30%
- Activity (CHO-K1 [18]): 14%
- Activity (CHO-K1 [19]): 4%
- Activity (CHO-K1 [20]): Non-Toxic

SMILES: COc1cccc2c1C(=O)c1c(O)c3c(c(O)c1C2=O)C[C@@](O)(C(=O)CO)C[C@@H]3O[C@H]1C[C@H](N)[C@H](O)[C@H](C)O1 [DOXORUBICIN]
- Activity_index (CHO-K1 [21]): 1.683

SMILES: O=C(N/N=C/c1ccc2no[n+]([O-])c2c1)c1ccccc1N1C(=O)c2ccccc2C1=O
- inhibition at 100 µM (Platelet): 0%
- Activity (Mus musculus): 30.5%

- Activity [13]: inactive
- Activity [15]: Active
SMILES: O=C(N/N=C/c1cccc(Oc2no[n+]([O-])c2S(=O)(=O)c2ccccc2)c1)c1ccc(N2C(=O)c3ccccc3C2=O)cc1
- inhibition at 100 µM (Platelet): 84%
- Activity (Mus musculus): 42%
- Activity (Macrophage [1]): >75%
- inhibition at 6.2 µM (Macrophage [12]): 61%
- inhibition at 12.5 µM (Macrophage [2]): 64.9%
- inhibition at 25 µM (Macrophage [3]): 73.6%
- Activity (K562 [22]): Active
- Activity (K562 [23]): Active
- Activity (K562 [24]): Active

SMILES: O=C(N/N=C/c1ccc2no[n+]([O-])c2c1)c1cccc(N2C(=O)c3ccccc3C2=O)c1
- inhibition at 100 µM (Platelet): 1.2%
- Activity (Mus musculus): 40.5%
- Activity (Macrophage [1]): >75%

SMILES: CC(=O)Oc1ccccc1C(=O)O [ASPIRIN]
- inhibition at 100 µM (Platelet): 5%

SMILES: Cc1c(N(C)CS(=O)(=O)[O-])c(=O)n(-c2ccccc2)n1C.[Na+] [DIPYRONE SODIUM]
- Activity (Mus musculus): 35%

SMILES: O=C1CCC(N2C(=O)c3ccccc3C2=O)C(=O)N1 (configuration not stated) [THALIDOMIDE]
- inhibition at 50 µM (Macrophage [4]): 31.7%
